{"source": "patent US4724233A", "about": "“Therapeutical application of phosphonylmethoxyalkyl adenines” (Stichting Rega VZW, priority 1985, dated 1988)", "key": {"[1]": {"tested_on": "HSV-2 (strain) 196", "assay": "inhibition of cytopathic effect of HSV-2 strain 196", "type": "cell-based, herpes simplex virus type 2", "settings": "Table 4, HSV-2 196, PRK cells"}, "[2]": {"tested_on": "PRK cells", "settings": "72 h"}, "[3]": {"tested_on": "Polio 1", "assay": "microbe, parasite or virus in culture", "type": "cell-based", "settings": "Table 3; HeLa cells"}, "[4]": {"tested_on": "Sindbis", "assay": "inhibition of cytopathic effect of Sindbis", "type": "cell-based", "settings": "Table 3; Vero B cells"}, "[5]": {"tested_on": "Vesicular stomatitis", "assay": "microbe, parasite or virus in culture", "type": "cell-based"}, "[6]": {"tested_on": "Herpes simplex I (KOS)", "assay": "inhibition of cytopathic effect of herpes simplex 1 (KOS)", "type": "cell-based, herpes simplex virus type 1", "settings": "Table 3, PRK cells"}, "[7]": {"tested_on": "Vaccinia", "assay": "microbe, parasite or virus in culture", "type": "cell-based"}, "[8]": {"tested_on": "herpes simplex virus type 1 (HSV-1) (strain KOS)", "type": "cell-based", "settings": "PRK cells"}, "[9]": {"tested_on": "vaccinia virus (VV)", "type": "cell-based", "settings": "PRK cells, average of two determinations"}, "[10]": {"tested_on": "Measles", "assay": "inhibition of cytopathic effect of measles", "type": "cell-based", "settings": "Table 3; Vero Flow cells"}, "[11]": {"tested_on": "Reovirus", "assay": "inhibition of cytopathic effect of reovirus", "type": "cell-based", "settings": "Table 3; Vero B cells"}, "[12]": {"tested_on": "HSV-1 (strain) F", "assay": "inhibition of cytopathic effect of HSV-1 strain F", "type": "cell-based, herpes simplex virus type 1", "settings": "Table 4, HSV-1 F, PRK cells"}, "[13]": {"tested_on": "HSV-1 (strain) TK^- C1101", "assay": "inhibition of cytopathic effect of HSV-1 TK- strain C1101", "type": "cell-based, herpes simplex virus type 1"}, "[14]": {"tested_on": "Moloney sarcoma", "assay": "inhibition of Moloney sarcoma virus", "type": "cell-based, Moloney mouse sarcoma virus", "settings": "Table 3, MO cells"}, "[15]": {"tested_on": "HSV-2 (strain) Lyons", "assay": "inhibition of cytopathic effect of HSV-2 strain Lyons", "type": "cell-based, herpes simplex virus type 2", "settings": "Table 4, HSV-2 Lyons, PRK cells"}, "[16]": {"tested_on": "HSV-1 (strain) McIntyre", "assay": "inhibition of cytopathic effect of HSV-1 strain McIntyre", "type": "cell-based, herpes simplex virus type 1", "settings": "Table 4, HSV-1 McIntyre, PRK cells"}, "[17]": {"tested_on": "Herpes simplex 2 (G)", "assay": "inhibition of cytopathic effect of herpes simplex 2 (G)", "type": "cell-based, herpes simplex virus type 2", "settings": "PRK cells; for EC50: Human alphaherpesvirus 2, PRK, read-out: MIC50"}, "[18]": {"tested_on": "Parainfluenza 3", "assay": "inhibition of cytopathic effect of parainfluenza 3", "type": "cell-based", "settings": "Table 3; Vero B cells"}, "[19]": {"tested_on": "Coxsackie B4", "assay": "inhibition of cytopathic effect of Coxsackie B4", "type": "cell-based", "settings": "Table 3; Vero B, HeLa cells"}, "[20]": {"tested_on": "PRK cells", "assay": "antimetabolic activity: incorporation of 3H-labeled precursors into primary rabbit kidney cells"}, "[21]": {"tested_on": "CMV (strain) Davis", "assay": "inhibition of CMV strain Davis in HEL cells", "type": "cell-based, cytomegalovirus", "settings": "Human betaherpesvirus 5, Table 5, read-out: MIC50"}, "[22]": {"settings": "cited from earlier work"}, "[23]": {"tested_on": "TK^- herpes viruses", "settings": "Prusoff et al.; cited from earlier work"}, "[24]": {"tested_on": "CMV (strain) AD 169", "assay": "inhibition of CMV strain AD 169 in HEL cells", "type": "cell-based, cytomegalovirus", "settings": "Human betaherpesvirus 5; Table 5; CMV AD 169, HEL cells; read-out: MIC50"}, "[25]": {"tested_on": "HSV-1 (strain) TK^- B2006", "assay": "inhibition of cytopathic effect of HSV-1 TK- strain B2006", "type": "cell-based, herpes simplex virus type 1", "settings": "Human alphaherpesvirus 1, PRK, read-out: MIC50"}, "[26]": {"settings": "48 h, 10 μg/ml (value in parentheses)"}, "[27]": {"settings": "Human alphaherpesvirus 2, read-out: MIC50"}, "[28]": {"settings": "Human alphaherpesvirus 1, read-out: MIC50"}}, "note": "Like-named read-outs stand apart in the source and are kept apart here."}
{"smiles": "Nc1ncnc2c1ncn2CC1COP(=O)(O)CO1", "note": "(racemic) [No. 5, 2',3'-cyclic O-phosphonylmethyl ether of (RS)-9-(2,3-dihydroxypropyl)adenine]", "values": [{"measurement": "MIC50", "setting": "[1]", "result": 15, "unit": "µg/mL"}, {"measurement": "MCC (minimal cytotoxic concentration)", "setting": "[2]", "result": "> 400", "unit": "µg/mL"}, {"measurement": "MIC50", "setting": "[3]", "result": "> 400", "unit": "µg/mL"}, {"measurement": "MIC50", "setting": "[4]", "result": "> 400", "unit": "µg/mL"}, {"measurement": "MIC50", "setting": "[5]; Table 3, HeLa, PRK cells", "result": "> 400", "unit": "µg/mL"}, {"measurement": "MIC50", "setting": "[6]", "result": 30, "unit": "µg/mL"}, {"measurement": "MIC50", "setting": "[7]; Table 3, PRK cells", "result": "0.7 to 3.0", "unit": "µg/mL"}, {"measurement": "Titer of HSV-1", "setting": "[8]; 24 h, 100 μg/ml", "result": "< 1.3", "unit": "log10 PFU/ml"}, {"measurement": "Titer of HSV-1", "setting": "[8]; [26]", "result": 6.04, "unit": "log10 PFU/ml"}, {"measurement": "Titer of HSV-1", "setting": "[8]; 48 h, 100 μg/ml", "result": 2.8, "unit": "log10 PFU/ml"}, {"measurement": "Titer of VV", "setting": "[9]; 1 h, 100 μg/ml", "result": 1.6, "unit": "log10 PFU/ml"}, {"measurement": "Titer of VV", "setting": "[9]; 24 h, 100 μg/ml", "result": 1.8, "unit": "log10 PFU/ml"}, {"measurement": "Titer of VV", "setting": "[9]; [26]", "result": "< 1.3", "unit": "log10 PFU/ml"}, {"measurement": "Titer of VV", "setting": "[9]; 48 h, 100 μg/ml", "result": "< 1.3", "unit": "log10 PFU/ml"}, {"measurement": "Titer of VV", "setting": "[9]; 72 h, 100 μg/ml", "result": 1.5, "unit": "log10 PFU/ml"}, {"measurement": "MIC50", "setting": "[10]", "result": "> 100", "unit": "µg/mL"}, {"measurement": "MIC50", "setting": "[11]", "result": "> 200", "unit": "µg/mL"}, {"measurement": "MIC50", "setting": "[12]", "result": 30, "unit": "µg/mL"}, {"measurement": "MIC50", "setting": "[13]; Table 4, HSV-1 TK^- C1101, PRK cells", "result": 7, "unit": "µg/mL"}, {"measurement": "MIC50", "setting": "[14]", "result": "> 200", "unit": "µg/mL"}, {"measurement": "MIC50", "setting": "[15]", "result": 15, "unit": "µg/mL"}, {"measurement": "MIC50", "setting": "[16]", "result": 30, "unit": "µg/mL"}, {"measurement": "MIC50", "setting": "[17]; Table 3", "result": 30, "unit": "µg/mL"}, {"measurement": "MIC50", "setting": "[18]", "result": "> 400", "unit": "µg/mL"}, {"measurement": "MIC50", "setting": "[19]", "result": "> 400", "unit": "µg/mL"}, {"measurement": "ID50 dUrd incorporation", "setting": "[20]; (3H-1',2')dUrd", "result": "≥ 360", "unit": "µg/mL"}, {"measurement": "ID50 Leu incorporation", "setting": "[20]; (3H-4,5)Leu", "result": "> 400", "unit": "µg/mL"}, {"measurement": "ID50 Urd incorporation", "setting": "[20]; (3H-5)Urd", "result": "> 400", "unit": "µg/mL"}, {"measurement": "ID50 dThd incorporation", "setting": "[20]; (3H-methyl) dThd", "result": "≥ 390", "unit": "µg/mL"}]}
{"smiles": "Nc1nc2c(ncn2COCCO)c(=O)[nH]1", "note": "[ACV, aclycovir, reference compound]", "values": [{"measurement": "EC50", "setting": "[1]; [27]", "result": 0.07, "unit": "µg/mL"}, {"measurement": "EC50", "setting": "[21]", "result": 20, "unit": "µg/mL"}, {"measurement": "EC50", "setting": "[5]; read-out: MIC50", "result": "> 400", "unit": "µg/mL"}, {"measurement": "solubility (in words)", "setting": "[22]", "result": "low solubility"}, {"measurement": "EC50", "setting": "[6]; [28]", "result": 0.2, "unit": "µg/mL"}, {"measurement": "EC50", "setting": "[7]; Orthopoxvirus vaccinia, PRK, read-out: MIC50", "result": 70, "unit": "µg/mL"}, {"measurement": "activity against TK^- herpes viruses (in words)", "setting": "[23]", "result": "inactive"}, {"measurement": "EC50", "setting": "[12]; [28]", "result": 0.2, "unit": "µg/mL"}, {"measurement": "EC50", "setting": "[13]; Human alphaherpesvirus 1, PRK, read-out: MIC50", "result": 20, "unit": "µg/mL"}, {"measurement": "EC50", "setting": "[14]; Mus musculus, read-out: MIC50", "result": 50, "unit": "µg/mL"}, {"measurement": "EC50", "setting": "[15]; [27]", "result": 0.07, "unit": "µg/mL"}, {"measurement": "EC50", "setting": "[16]; [28]", "result": 0.1, "unit": "µg/mL"}, {"measurement": "EC50", "setting": "[24]", "result": 30, "unit": "µg/mL"}, {"measurement": "EC50", "setting": "[17]; Table 3", "result": 0.7, "unit": "µg/mL"}, {"measurement": "EC50", "setting": "[17]; Table 4, HSV-2 G", "result": 0.07, "unit": "µg/mL"}, {"measurement": "EC50", "setting": "[25]", "result": 70, "unit": "µg/mL"}]}
